Read-outs that look alike come from different tables or passages of the source.
Legend:
[1] = ref Wojtowicz-Praga et al, 1998, cited from earlier work
[2] = system: MDA-435 human breast carcinoma; set-up: method as in British Biotech, unpublished data; conditions: MDA-435 human breast carcinoma model; ref British Biotech, unpublished data; cited from earlier work
[3] = system: solid tumours; assay: Assessment of response in the phase I study; format: in vivo, patients
Protocol: Disease assessment was performed at baseline and repeated at 84 days or at withdrawal from the study. Patients were reviewed 4 weeks after withdrawal from the study.
Response was formally assessed radiologically after 3 months of therapy.

[4] = Phase I dose-escalation study: DLT, MTD and adverse events
Protocol: Patients over the age of 18 were required to be of ECOG performance status 0, 1 or 2, and to have a predicted survival of at least 3 months.
This was a phase I, open-label, dose-escalation study. BB-3644 was supplied as capsules comprising 5, 10, 20 and 40 mg BB-3644 (with maize starch, colloidal silica, magnesium stearate and lactose) by British Biotech Pharmaceuticals Ltd, UK. BB-3644 was administered orally twice daily for 84 days to cohorts of patients at doses 5, 10, 20 and 30 mg. […] Dose-limiting toxicity was defined as ‘an adverse reaction likely to be caused by the study drug and unlikely to be attributed to concurrent disease or other drugs or chemicals’. Essentially, any toxicity graded by CTC criteria as at least grade II was considered to be a DLT, as this could preclude chronic oral administration of a drug. If one patient experienced DLT, the cohort size was increased to six patients for that dose level. Further dose escalation was performed, provided that no more than […] patients experienced DLT by day 28. Nine patients were to be treated at the highest dose level. Patients experiencing DLT were eligible to continue treatment at a reduced dose following resolution of toxicity.
Physical examination, chest radiograph, haematology and serum chemistry were checked at baseline, every 4 weeks and at study termination. […] Patients were also reviewed by an opthalmologist at these times, to check the visual acuity, visual fields, and examine the whole eye and the fundi.

[5] = system: processing of cell-bound TNF-α; conditions: relative to marimastat; background data, no reference given; cited from earlier work
[6] = set-up: method as in British Biotech, unpublished data; conditions: marmosets; ref British Biotech, unpublished data; cited from earlier work
[7] = cited from earlier work
[8] = system: B16-BL6 murine melanoma; set-up: method as in British Biotech, unpublished data; conditions: B16-BL6 murine melanoma model; ref British Biotech, unpublished data; cited from earlier work
[9] = biological target: enkephalinase; conditions: background data, no reference given; read-out: IC50 against enkephalinase; cited from earlier work
[10] = biological target: collagenase-3; conditions: background data, no reference given; read-out: IC50 against collagenase-3; cited from earlier work
[11] = clinical; conditions: human, in vivo; for half-life: T1/2; for AUC(0-t): AUC0–24
Protocol: Blood samples were collected in heparinised tubes before treatment, every 15 min for 2 h, at 2 h 30 min, 3, 4, 6, 8, 10 and 24 h on days 1 and 14 for the measurement of BB-3644. Blood samples were kept on ice. They were centrifuged at 4°C (1500 g for 10 min) within 30 min of collection. The supernatant plasma was collected and frozen at −70°C or cooler, until sent for analysis. Samples were analysed centrally in the Department of Drug Metabolism and Pharmacokinetics at British Biotech, UK.
Samples were analysed for BB-3644 content using a validated reverse-phase HPLC method with mass spectrometric detection. The limit of quantification was 1 ng ml^−1. The data were analysed using WinNonlin v2.1 Standard version (Pharsight Corporation, USA). PK parameters were derived from individual plasma concentration–time data, using noncompartmental analysis.
On the days of PK sampling, only the morning dose of BB-3644 was taken.

[12] = system: HODP.IP rat mammary carcinoma cells; set-up: method as in British Biotech, unpublished data; conditions: lung colonisation model, ref British Biotech, unpublished data; cited from earlier work
[13] = rhesus monkey, in vivo; cited from earlier work
[14] = biological target: gelatinase A; conditions: background data, no reference given; read-out: IC50 against gelatinase A; cited from earlier work
[15] = of the 13 patients that completed 12 weeks of therapy

CNC(=O)[C@@H](NC(=O)[C@H](CC(C)C)[C@H](O)C(=O)NO)C(C)(C)C [marimastat]
treatment-limiting toxicities ([1]; clinical testing of marimastat, Tierney et al, 1999, Evans et al, 2001): Musculoskeletal pain and inflammation | AUC achieved at the MTD ([1]; phase I studies of marimastat): 2623 ng·h/mL

CO[C@H](C(=O)NO)[C@@H](CC(C)C)C(=O)N[C@H](C(=O)Nc1ccccn1)C(C)(C)C [BB-3644]
activity in inhibiting tumour growth [2]: activity in inhibiting tumour growth | therapeutic activity, overall conclusion ([3]; 22 patients, 5 to 30 mg bd): no evidence of beneficial therapeutic activity | patients with progressive disease radiologically [3, 15]: 11 | patients with stable disease radiologically [3, 15]: two | maximum tolerated dose (MTD) ([4]; 28 days of oral treatment): 20 mg bd | maximum tolerated dose (MTD) ([4]; chronic oral dosing (>28 days, up to 84 days)): 5 mg bd | patients with musculoskeletal DLTs (number) ([4]; human, in vivo, 84 days): 14 | patients with musculoskeletal DLTs (share) ([4]; human, in vivo, 84 days): 64% | SAE considered possibly related to the study drug ([4]; in vivo): thromboembolic episodes | ophthalmological or gall bladder-related toxicity ([4]; in vivo): no significant opthalmological or gall bladder-related toxicity | patients who developed phlebitis ([4]; in vivo): Two | patients with dose-limiting malaise (NCI CTC toxicity >grade 1) ([4]; in vivo): Two | dose-limiting toxicity (DLT), nature ([4]; in vivo, po): musculoskeletal pain | fold more active than marimastat in inhibiting the processing of cell-bound TNF-α [5]: > 10 fold | joint toxicity [6]: induced inflammation of joint ligaments and tendons | principal toxicity [6]: cell debris in the gall bladder, with mucosal erosions and epithelial hyperplasia | toxicity at higher doses ([7]; dog, in vivo): Encephalopathy | ocular changes ([7]; dogs, ref British Biotech, unpublished data): conjunctival hyperaemia, chemosis, corneal stromal limbal vascularisation and diffuse corneal haze and flocculation | activity in inhibiting tumour growth [8]: activity in inhibiting tumour growth | IC50 [9]: 40 nM | IC50 [10]: 3 nM | time to mean maximal concentration, range over dose levels [11]: 30 to 90 min | T1/2 ([11]; 5 mg): 4 h | Tmax ([11]; 5 mg): 1 h | half-life ([11]; 5 mg): 2 h | Tmax ([11]; 5 mg, Tmax): 0.75 h | Cmax ([11]; 10 mg): 179 ng/mL | T1/2 ([11]; 10 mg): 2.5 h | Tmax ([11]; 10 mg): 1 h | Cmax ([11]; 10 mg, Cmax): 114 ng/mL | half-life ([11]; 10 mg): 1.5 h | Tmax ([11]; 10 mg, Tmax): 0.5 h | AUC0–24 ([11]; 20 mg): 1248 ng·h/mL | Cmax ([11]; 20 mg): 282 ng/mL | T1/2 ([11]; 20 mg): 3 h | Tmax ([11]; 20 mg): 0.75 h | AUC(0-t) ([11]; 20 mg): 781 ng·h/mL | Cmax ([11]; 20 mg, Cmax): 232 ng/mL | half-life ([11]; 20 mg): 1.5 h | Tmax ([11]; 20 mg, Tmax): 0.5 h | AUC0–24 ([11]; 30 mg): 4401 ng·h/mL | Cmax ([11]; 30 mg): 536 ng/mL | Tmax ([11]; 30 mg): 1.75 h | AUC(0-t) ([11]; 30 mg): 2520 ng·h/mL | Cmax ([11]; 30 mg, Cmax): 315 ng/mL | half-life ([11]; 30 mg): 6 h | Tmax ([11]; 30 mg, Tmax): 1.5 h | tendinitis of the hind limbs [12]: did not cause tendinitis of the hind limbs | principal toxicity [13]: cell debris in the gall bladder, with mucosal erosions and epithelial hyperplasia | IC50 [14]: 80 nM

Reference: paper PMC2410175, “A phase I and pharmacological study of the matrix metalloproteinase inhibitor BB-3644 in patients with solid tumours” (British Journal of Cancer, 2004)
